Laboratory results as given in paper PMC6394990, “Detailed characterization of the solution kinetics and thermodynamics of biotin, biocytin and HABA binding to avidin and streptavidin” (PLoS ONE, 2019).
“And” between values parts separate entries of the source, which are not always exact repeats. Identical values can stand only once.

Assays:
streptavidin (SAV) [1] = biological target: T1, streptavidin (SAV) (Streptomyces avidinii, UniProt P22629); assay: Literature kinetics, affinity and dissociation (backward) activation parameters; format: binding; settings: SAV-B7, average of the reported values
T1 construct: purchased Sigma Aldrich (St. Louis, MO)
T1 sequence (P22629 25-183): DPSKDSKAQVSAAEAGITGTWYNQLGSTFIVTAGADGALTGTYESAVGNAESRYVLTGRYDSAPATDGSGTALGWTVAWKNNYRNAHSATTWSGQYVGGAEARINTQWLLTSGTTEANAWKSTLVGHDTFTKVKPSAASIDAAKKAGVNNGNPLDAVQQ

avidin (AV) [2] = biological target: T2, avidin (AV) (Gallus gallus, UniProt P02701); assay: Relaxation kinetics of unlabeled biotin reacting with the AV-HABA complex; format: binding; settings: pH 8 and 23°C; read-out: konB, association rate of unlabeled B7 to the final site (AV-HABA3)
T2 construct: purchased Calbiochem (La Jolla, CA)
T2 sequence (P02701 25-152): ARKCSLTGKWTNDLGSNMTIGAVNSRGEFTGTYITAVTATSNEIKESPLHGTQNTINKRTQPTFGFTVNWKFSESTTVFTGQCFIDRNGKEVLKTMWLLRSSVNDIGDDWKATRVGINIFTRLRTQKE
Procedure: All of the following protein concentrations are presented on a binding site basis, thus in the case of the HABA association reactions for AV were measured at 23.0 ± 0.1°C with a concentration of 87 μM HABA and 7.7 μM AV. The AV-HABA relaxation reactions were conducted with a preformed AV-HABA complex made up of 200 μM HABA and 10 μM AV, flowed against varying amounts of B7 from 100 μM up to 4000 μM for a [HABA]/[B7] ratio that ranged from 0.05 to 2.
The relaxation experiments were prepared at concentrations in which HABA occupies all sites (AV-HABA4). Biotin replaces HABA relative to the koff of the dye as shown for the first step (Eq 1) and then repeated for all sites. Having greater affinity, B7 occupies all sites at the end of the reaction and the measured kon is related to the affinities of the ligand bound protein.
The reaction is monitored by the HABA absorbance changes at 500 nm as it is replaced by unlabeled B7; yielding the relaxation constant of the reaction (Relaxation, Eq 2) which contains information of the B7 association rate constant of the open binding site, k1AV−HABA3 to form a full saturated complex (AV-HABA4) and the dissociation rate of that full complex, k−1AV−HABA4 , to yield a complex with three HABA molecules (AV-HABA3). In the subsequent steps, B7 replaces HABA as the ligand but the release of HABA creates an unoccupied site that remains in the same state. In summary, the experiment was designed to acquire the pseudo-first order association rate constant of B7 binding ( konB ) to the solely free binding site in a complex occupied by three HABA molecules (AV-HABA3).
The reciprocal of the relaxation constant (1/Relaxation) is plotted vs. the [HABA]/[B] concentration ratio (Eq 3) allowing to calculate: k−1AV−HABA4 and k1AV−HABA3 by solving for the intercept ( 1/k−1AV−HABA4 ) and the respective slope: m=k1AV−HABA3/(k−1AV−HABA4∙konB) . The exponential decays were analyzed by the method of Foss. There was no departure from simple first order decay in the relaxation, justifying the use of the following model and equations.

avidin (AV) [3] = biological target: T2, avidin (AV); assay: Fluorescence lifetimes, AV complex; format: physicochemical; settings: for Lifetime τ: AV complex (AB1), 20°C, pH 8; for t (1), fluorescence lifetime: complex with AV, t for BFl and BcO, average lifetime for B-DNAds*Fl, in ns
Procedure: (§1) The lifetimes (τ), steady state anisotropies (rss), time-resolved anisotropies (rt) and quantum yields (QY) of the complexes (at 20 ± 0.1°C and pH 8) were collected with a dye-labeled B7 probe concentration of 20–40 nM and 1040–2080 nM of either protein (AV or SAV) to ensure that only one binding site in the tetramer was filled with a ligand (AB1 filling model).
(§2) The lifetimes were collected in a FluoTime100 fluorescence spectrometer (PicoQuant, GmbH, Berlin, Germany) with the excitation light source provided by a picosecond pulsed diode laser (PicoQuant, GmbH, Berlin, Germany) at 470 nm and 20 MHz. The emission was collected at 520 nm through a non-fluorescing 520 nm interference filter (Oriel Corp., Stratford, CT) followed by a liquid filter of 1cm path length containing 24 mM acetate buffered dichromate at pH 4, between the sample and detector to eliminate traces of excitation light. The fluorescence decays were fit by a nonlinear least-squares minimization based on the Marquardt algorithm embedded in the Fluofit software (PicoQuant GmbH). Twenty-eight decays were collected per sample, the decays were grouped in four sets, consisting of seven sample decays and one Instrument Response Function, IRF, for deconvolution proposes. The decay sets were globally fitted to mono- or bi-exponential decay models that were discriminated using the statistical parameter χ^2. The rt data were acquired with the fluorimeter described above equipped with a polarizer and an analyzer to acquire the parallel VV(t) and perpendicular VH(t) decays. The PicoQuant G factor was calculated according to: G = ∫HV(t)dt/∫HH(t)dt, where HV(t) and HH(t) were the decays collected with the emission polarizer selecting vertical and horizontal E-vector passing orientations, respectively, and the excitation polarizer set at horizontally position.

[4] = Time-resolved anisotropy, cone angle, unbound probe; format: physicochemical; settings: unbound dye
Procedure: as §2, with “Twenty-eight decays were collected per sample, the decays were grouped in four sets, consisting of seven sample decays and one Instrument Response Function, IRF, for deconvolution proposes. The decay sets were globally fitted to mono- or bi-exponential decay models that were discriminated using the statistical parameter χ^2. The rt data were acquired with the fluorimeter described above equipped with a polarizer and an analyzer to acquire the parallel VV(t) and perpendicular VH(t) decays.” left out, “position. […]” for “position.”
(§3) In a simple model, the transition moment is assumed to wobble within a cone of semi-apical angle Ω [59], where the cone axis is normal to the surface of a sphere that corresponds to the macromolecule. The angle Ω is calculated from Eq 14.

streptavidin (SAV) [5] = biological target: T1, streptavidin (SAV); assay: Time-resolved anisotropy, cone angle, SAV complex; format: physicochemical; settings: complex with SAV
Procedure: as §1
The lifetimes were collected in a FluoTime100 fluorescence spectrometer (PicoQuant, GmbH, Berlin, Germany) with the excitation light source provided by a picosecond pulsed diode laser (PicoQuant, GmbH, Berlin, Germany) at 470 nm and 20 MHz. […] The fluorescence decays were fit by a nonlinear least-squares minimization based on the Marquardt algorithm embedded in the Fluofit software (PicoQuant GmbH). […] The PicoQuant G factor was calculated according to: G = ∫HV(t)dt/∫HH(t)dt, where HV(t) and HH(t) were the decays collected with the emission polarizer selecting vertical and horizontal E-vector passing orientations, respectively, and the excitation polarizer set at horizontally position. […]
as §3

streptavidin (SAV) [6] = biological target: T1, streptavidin (SAV); assay: Absorbance and fluorescence emission spectra, SAV complex; format: physicochemical
Procedure: as §1
The QY values were obtained by using a reference fluorophore of known quantum yield and were calculated according to Parker and Rees, where the reference dye was fluorescein in 0.1N sodium hydroxide solution [46]. The emission fluorescence scans were collected from 480 nm to 700 nm with the excitation light set at 460 nm provided by the xenon arc lamp described above. These measurements were made on the AB1 complexes at high protein concentration.
Supplementary file pone.0204194.s001.docx: S1 Fig Absorbance spectra of dye-labeled B7 probes and respective complexes with AV and SAV. […] The spectra are normalized to the calculated molar absorptivies. The distortion of the SAV-BFl absorbance spectrum (B panel) is caused by the presence of Fl^2- and Fl^1-. The labeled probes and protein concentrations were 1 μM and 10 μM, respectively. (DOCX) Click here for additional data file.
Supplementary file pone.0204194.s002.docx: S2 Fig Fluorescence emission spectra of dye-labeled B7 and respective complexes with AV and SAV. […] The probe and protein concentrations were 20 nM and 1040 nM (AB1 filling model), respectively. (DOCX) Click here for additional data file.

[7] = SAV complex, mono-ionic fluorescein species

Compound: O=C(O)CCCC[C@@H]1SC[C@@H]2NC(=O)N[C@@H]21 [B7, d-biotin]
- Ea^Backward, averaged value (streptavidin (SAV) [1]): 29.4 ± 2.6 kcal/mol and 29.4 kcal/mol
- ΔG° ^ǂ, Backward, averaged value (streptavidin (SAV) [1]): 23.6 ± 1.5 kcal/mol and 23.6 kcal/mol
- ΔS° ^ǂ, Backward, averaged value (streptavidin (SAV) [1]): 24.8 ± 4.5 cal/mol°K and 24.8 cal/mol°K
- ΔG° ^ǂ, Backward, averaged value (streptavidin (SAV) [1]; listed as B): 23.6 ± 1.0 kcal/mol
- ΔS° ^ǂ, Backward, averaged value (streptavidin (SAV) [1]; listed as B): 24.8 ± 2.5 cal/mol°K
- kon (avidin (AV) [2]): 5.3e+06 ± 9e+11 M⁻¹ s⁻¹

Compound: O=C(CCCC[C@@H]1SC[C@@H]2NC(=O)N[C@@H]21)NCCNC(=O)c1ccc(-c2c3ccc(=O)cc-3oc3cc(O)ccc23)c(C(=O)O)c1 [BFl, Biotin-4-fluorescein]
- Lifetime τ (avidin (AV) [3]): 4.22 ± 0.01 ns
- t (1), fluorescence lifetime (avidin (AV) [3]): 4.22 ± 0.01
- W [4]: 90 °
- W (streptavidin (SAV) [5]): 51
- Maximum Absorbance (streptavidin (SAV) [6]; SAV complex, di-ionic fluorescein species): 494 nm
- Maximum Absorbance (streptavidin (SAV) [6]; [7]): 472 nm
- Maximum Emission (streptavidin (SAV) [6]; [7]): 515 nm
- Emission (nm) (streptavidin (SAV) [6]; complex with SAV): 524 nm

Compound: NC(CCCCNC(=O)CCCC[C@@H]1SC[C@@H]2NC(=O)N[C@@H]21)C(=O)NCCCCCNC(=O)c1ccc(-c2c3cc(F)c(=O)cc-3oc3cc(O)c(F)cc23)c(C(=O)O)c1 (stereo partly drawn) [BcO, Oregon green 488 Biocytin]
- Lifetime τ (avidin (AV) [3]): 4.35 ± 0.01 ns
- t (1), fluorescence lifetime (avidin (AV) [3]): 4.35 ± 0.01
- W [4]: 90 °
- W (streptavidin (SAV) [5]): 50
